What was measured:
MAPK14 (human) = MAPK14 (human) (UniProt Q16539); experiment: Antiproliferation Assay (U937 Cells)
MAPK14 [1] = target: MAPK14 (UniProt Q16539); experiment: MAPK14 Inhibition (PHAS-I)
MAPK14 [2] = target: MAPK14 (UniProt Q16539); experiment: MAPK14 inhibition (EGFRP)
MAPK14 (Balb/c mice) = experiment: LPS Induced TNF-alpha Production (Balb/c Mice); details: dose or concentration not given here

Chain of MAPK14 (Q16539 whole entry, looked up): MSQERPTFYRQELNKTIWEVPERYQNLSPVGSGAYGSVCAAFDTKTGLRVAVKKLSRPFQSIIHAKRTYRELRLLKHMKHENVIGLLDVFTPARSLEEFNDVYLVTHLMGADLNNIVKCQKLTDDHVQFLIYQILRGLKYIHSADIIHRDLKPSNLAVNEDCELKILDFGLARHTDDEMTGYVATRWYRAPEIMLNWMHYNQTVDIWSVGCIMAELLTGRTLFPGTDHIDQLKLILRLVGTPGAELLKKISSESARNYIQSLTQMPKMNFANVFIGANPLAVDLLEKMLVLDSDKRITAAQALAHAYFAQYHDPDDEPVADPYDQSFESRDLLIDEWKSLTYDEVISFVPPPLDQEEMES
Chain of MAPK14 (human) (Q16539 whole entry, looked up): as above

CNC(=O)Nc1n[nH]c(-c2ccncc2)c1-c1ccc(F)cc1
IC50 (MAPK14 (human)): 10 µM

Fc1ccc(-c2cn(CCN3CCOCC3)nc2-c2ccncc2)cc1.Fc1ccc(-c2cnn(CCN3CCOCC3)c2-c2ccncc2)cc1
IC50 (MAPK14 [1]): 0.86 µM | IC50 (MAPK14 [2]): > 10 µM | IC50 (MAPK14 (human)): 22 µM

CN(C)CCn1cc(-c2ccc(F)cc2)c(-c2ccncc2)n1.CN(C)CCn1ncc(-c2ccc(F)cc2)c1-c1ccncc1
IC50 (MAPK14 [1]): 0.941 µM | IC50 (MAPK14 [2]): 10 µM | IC50 (MAPK14 (human)): 5 µM

Cc1n[nH]c(-c2ccncc2)c1-c1ccccc1
IC50 (MAPK14 (human)): 10 µM

CN1CCC(n2cc(-c3ccc(F)cc3)c(-c3ccncc3)n2)CC1.CN1CCC(n2ncc(-c3ccc(F)cc3)c2-c2ccncc2)CC1
IC50 (MAPK14 [1]): 5.9 µM | IC50 (MAPK14 [2]): 0.75 µM | inhibition (MAPK14 (Balb/c mice)): 32%

NS(=O)(=O)Nc1n[nH]c(-c2ccc(F)cc2)c1-c1ccncc1
IC50 (MAPK14 (human)): 10 µM

OCCn1cc(-c2ccc(F)cc2)c(-c2ccncc2)n1.OCCn1ncc(-c2ccc(F)cc2)c1-c1ccncc1
IC50 (MAPK14 [1]): 0.695 µM | IC50 (MAPK14 [2]): 10 µM | IC50 (MAPK14 (human)): 40 µM

Cn1nc(-c2ccncc2)c(-c2ccc(Cl)cc2)c1N
IC50 (MAPK14 (human)): 10 µM

— the Kinase Knowledgebase extract (Sharma et al. 2016)
